From patent publication US20190183890A1, “METHODS AND COMPOSITIONS FOR PROMOTING HAIR GROWTH” (Rophe Pharma, Inc., priority 2016, published 2019)

What was measured:
androgenic alopecia [1] = conditions: topical
androgenic alopecia [2] = test system: androgenic alopecia

## Cl.NNc1nncc2ccccc12 [hydralazine, 1-hydrazinophthalazine monohydrochloride]
Androgenic alopecia [1]; 0.2% solution in glycol, alcohol and water, over 200 patients, mostly androgenic alopecia
  hair regrowth: hair grew back
Androgenic alopecia [1]; 0.2% solution, treatment has to be continued every month to sustain the hair
  time until hair growth visible: visible after the first month
Androgenic alopecia [2]; 12 men aged 33-69 years, 150, then 300, then 600 mg/100 ml, after 6-8 weeks of treatment
  men with visible enhancement in hair count and hair thickness: 11 out of the 12
Androgenic alopecia [2]; 12 men, 150 to 600 mg/100 ml
  treatment time to visible enhancement in hair count and hair thickness: 6-8 weeks
Androgenic alopecia [2]; 12 men, visible enhancement after 6-8 weeks
  onset of effect compared with Rogaine: much faster onset of effect than Rogaine
